Reference: PubChem BioAssay (NCI)
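Cultured in 96-well plates, cells were exposed to test compound for 48 hours across five concentrations. At the GI50, growth is halved. TGI: concentration producing complete growth inhibition.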

Tests used:
Test in all cases: NCI tumour cell line growth inhibition, 48 h
[1] = tested on: OVCAR-3 ovarian
[2] = tested on: HS 578T breast
[3] = tested on: NCI-H226 lung
[4] = tested on: UO-31 renal
[5] = tested on: HCT-116 colon
[6] = tested on: TK-10 renal
[7] = tested on: IGROV1 ovarian
[8] = tested on: NCI-H460 lung
[9] = tested on: UACC-257 melanoma
[10] = tested on: HOP-62 NSCLC
[11] = tested on: SK-MEL-2 melanoma
[12] = tested on: SW-620 colon
[13] = tested on: SF-268 CNS
[14] = tested on: RXF 393 renal
[15] = tested on: U251 CNS
[16] = tested on: DU-145 prostate
[17] = tested on: SK-MEL-28 melanoma
[18] = tested on: SF-295 CNS
[19] = tested on: HCC-2998 colon
[20] = tested on: SF-539 CNS
[21] = tested on: MDA-MB-435
[22] = tested on: SN12C renal
[23] = tested on: NCI/ADR-RES ovarian
[24] = tested on: HOP-92 NSCLC
[25] = tested on: M14 melanoma
[26] = tested on: NCI-H522 lung
[27] = tested on: MCF7 breast
[28] = tested on: OVCAR-5 ovarian
[29] = tested on: A498 renal
[30] = tested on: SK-MEL-5 melanoma
[31] = tested on: T-47D breast
[32] = tested on: LOX IMVI melanoma
[33] = tested on: CAKI-1 renal
[34] = tested on: CCRF-CEM leukemia
[35] = tested on: HT29 colon
[36] = tested on: NCI-H23 lung
[37] = tested on: COLO 205 colon
[38] = tested on: BT-549 breast
[39] = tested on: KM12 colon
[40] = tested on: K-562 leukemia
[41] = tested on: RPMI-8226 leukemia
[42] = tested on: OVCAR-8 ovarian
[43] = tested on: A549 NSCLC
[44] = tested on: MDA-MB-231 breast
[45] = tested on: HL-60(TB) leukemia
[46] = tested on: UACC-62 melanoma
[47] = tested on: PC-3 prostate
[48] = tested on: SNB-75 CNS
[49] = tested on: 786-0 renal
[50] = tested on: EKVX NSCLC
[51] = tested on: HCT-15 colon
[52] = tested on: SK-OV-3 ovarian
[53] = tested on: ACHN renal
[54] = tested on: SNB-19 CNS
[55] = tested on: SR leukemia
[56] = tested on: MOLT-4 leukemia
[57] = tested on: OVCAR-4 ovarian

CC1=C(C(=O)Nc2ccc(F)c(Cl)c2)C(c2cccc(O)c2)NC(=O)N1 (configuration not stated)
GI50 [1]: 71.8 µM
TGI [1]: > 100 µM
GI50 [2]: 26.9 µM
TGI [2]: > 100 µM
GI50 [3]: 85.9 µM
TGI [3]: > 100 µM
GI50 [4]: 71.4 µM
TGI [4]: > 100 µM
GI50 [5]: 70.7 µM
TGI [5]: > 100 µM
GI50 [6]: > 100 µM
TGI [6]: > 100 µM
GI50 [7]: 36.1 µM
TGI [7]: > 100 µM
GI50 [8]: > 100 µM
TGI [8]: > 100 µM
GI50 [9]: 54.3 µM
TGI [9]: > 100 µM
GI50 [10]: > 100 µM
TGI [10]: > 100 µM
GI50 [11]: 29.5 µM
TGI [11]: > 100 µM
GI50 [12]: > 100 µM
TGI [12]: > 100 µM
GI50 [13]: 98 µM
TGI [13]: > 100 µM
GI50 [14]: > 100 µM
TGI [14]: > 100 µM
GI50 [15]: > 100 µM
TGI [15]: > 100 µM
GI50 [16]: > 100 µM
TGI [16]: > 100 µM
GI50 [17]: 58.9 µM
TGI [17]: > 100 µM
GI50 [18]: > 100 µM
TGI [18]: > 100 µM
GI50 [19]: > 100 µM
TGI [19]: > 100 µM
GI50 [20]: > 100 µM
TGI [20]: > 100 µM
GI50 [21]: 59.7 µM
TGI [21]: > 100 µM
GI50 [22]: > 100 µM
TGI [22]: > 100 µM
GI50 [23]: > 100 µM
TGI [23]: > 100 µM
GI50 [24]: 47.5 µM
TGI [24]: > 100 µM
GI50 [25]: 71.4 µM
TGI [25]: > 100 µM
GI50 [26]: 49 µM
TGI [26]: > 100 µM
GI50 [27]: 58.8 µM
TGI [27]: > 100 µM
GI50 [28]: > 100 µM
TGI [28]: > 100 µM
GI50 [29]: 5.04 µM
TGI [29]: > 100 µM
GI50 [30]: 45.1 µM
TGI [30]: > 100 µM
GI50 [31]: > 100 µM
TGI [31]: > 100 µM
GI50 [32]: > 100 µM
TGI [32]: > 100 µM
GI50 [33]: > 100 µM
TGI [33]: > 100 µM
GI50 [34]: 79.3 µM
TGI [34]: > 100 µM
GI50 [35]: 81.6 µM
TGI [35]: > 100 µM
GI50 [36]: > 100 µM
TGI [36]: > 100 µM
GI50 [37]: > 100 µM
TGI [37]: > 100 µM
GI50 [38]: 67 µM
TGI [38]: > 100 µM
GI50 [39]: 61.4 µM
TGI [39]: > 100 µM
GI50 [40]: 73.5 µM
TGI [40]: > 100 µM
GI50 [41]: 55.1 µM
TGI [41]: > 100 µM
GI50 [42]: 62.7 µM
TGI [42]: > 100 µM
GI50 [43]: > 100 µM
TGI [43]: > 100 µM
GI50 [44]: 46.2 µM
TGI [44]: > 100 µM
GI50 [45]: 6.81 µM
TGI [45]: > 100 µM
GI50 [46]: 48.7 µM
TGI [46]: > 100 µM
GI50 [47]: 63.9 µM
TGI [47]: > 100 µM
GI50 [48]: 17.8 µM
TGI [48]: 68.3 µM
GI50 [49]: > 100 µM
TGI [49]: > 100 µM
GI50 [50]: 78.1 µM
TGI [50]: > 100 µM
GI50 [51]: > 100 µM
TGI [51]: > 100 µM
GI50 [52]: > 100 µM
TGI [52]: > 100 µM
GI50 [53]: > 100 µM
TGI [53]: > 100 µM
GI50 [54]: > 100 µM
TGI [54]: > 100 µM

COC(=O)C1=C(C)NC(C)=C(C(=O)OC)C1c1nc2sccn2c1[N+](=O)[O-]
TGI [1]: > 100 µM
TGI [2]: > 100 µM
TGI [3]: > 100 µM
TGI [4]: > 100 µM
TGI [5]: > 100 µM
TGI [55]: > 100 µM
TGI [6]: > 100 µM
TGI [8]: > 100 µM
TGI [9]: > 100 µM
TGI [10]: > 100 µM
TGI [11]: > 100 µM
TGI [12]: > 100 µM
TGI [13]: > 100 µM
TGI [14]: > 100 µM
TGI [15]: > 100 µM
TGI [16]: > 100 µM
TGI [17]: > 100 µM
TGI [18]: > 100 µM
TGI [56]: > 100 µM
TGI [19]: > 100 µM
TGI [20]: > 100 µM
TGI [21]: > 100 µM
TGI [22]: > 100 µM
TGI [23]: > 100 µM
TGI [24]: > 100 µM
TGI [25]: > 100 µM
TGI [27]: > 100 µM
TGI [28]: > 100 µM
TGI [29]: > 100 µM
TGI [30]: > 100 µM
TGI [31]: > 100 µM
TGI [32]: > 100 µM
TGI [33]: > 100 µM
TGI [34]: > 100 µM
TGI [36]: > 100 µM
TGI [37]: > 100 µM
TGI [38]: > 100 µM
TGI [39]: > 100 µM
TGI [40]: > 100 µM
TGI [41]: > 100 µM
TGI [42]: > 100 µM
TGI [43]: > 100 µM
TGI [44]: > 100 µM
TGI [45]: > 100 µM
TGI [46]: > 100 µM
TGI [47]: > 100 µM
TGI [48]: > 100 µM
TGI [49]: > 100 µM
TGI [50]: > 100 µM
TGI [51]: > 100 µM
TGI [52]: > 100 µM
TGI [57]: > 100 µM
TGI [53]: > 100 µM
TGI [54]: > 100 µM
